# From the NIST ThermoML archive (doi:10.1016/j.tca.2014.02.019)
# Values joined by “and” are separate entries in the source; they are usually repeats but may differ in a detail not shown here. Identical values can stand only once. ± gives the expanded uncertainty stated by the source.
# Columns and labels:
# [1] = for viscosity / mass density: 101 kPa, Liquid; for viscosity: Falling or rolling sphere viscometry; for mass density: Vibrating tube method
# [2] = xn = mol fraction of the nth substance listed; settings: 101 kPa, Liquid, x2 = 0; for viscosity: Falling or rolling sphere viscometry; for mass density: Vibrating tube method
SMILES,viscosity ([1]; 313.15 K) [mPa·s],mass density ([1]; 313.15 K) [kg/m3],viscosity ([1]; 318.15 K) [mPa·s],mass density ([1]; 318.15 K) [kg/m3],viscosity ([1]; 323.15 K) [mPa·s],mass density ([1]; 323.15 K) [kg/m3],viscosity ([1]; 328.15 K) [mPa·s],mass density ([1]; 328.15 K) [kg/m3],viscosity ([1]; 333.15 K) [mPa·s],mass density ([1]; 333.15 K) [kg/m3],viscosity ([1]; 338.15 K),mass density ([1]; 338.15 K) [kg/m3],viscosity ([1]; 343.15 K),mass density ([1]; 343.15 K) [kg/m3],viscosity ([2]; 313.15 K) [mPa·s],mass density ([2]; 313.15 K) [kg/m3],viscosity ([2]; 318.15 K) [mPa·s],viscosity ([2]; 323.15 K) [mPa·s],mass density ([2]; 323.15 K) [kg/m3],viscosity ([2]; 328.15 K) [mPa·s],also measured
CCOS(=O)(=O)[O-].CC[N+]1(C)CCCCC1 [1-ethyl-1-methylpiperidinium ethyl sulfate],549.9 ± 97,1171.79 ± 2.6,391.8 ± 68,1168.85 ± 2.6,285.8 ± 48,1165.73 ± 2.6,212.6 ± 35,1162.62 ± 2.6,162.5 ± 27,1159.54 ± 2.6,126.1 ± 21 mPa·s,1156.56 ± 2.6,99.87 ± 16 mPa·s,1153.58 ± 2.6,,,,,,,viscosity ([1]; 298.15 K): 1821 ± 360 mPa·s; mass density ([1]; 298.15 K): 1181.33 ± 2.7 kg/m3; viscosity ([1]; 303.15 K): 1186 ± 220 mPa·s; mass density ([1]; 303.15 K): 1178.23 ± 2.7 kg/m3; viscosity ([1]; 308.15 K): 795.7 ± 140 mPa·s; mass density ([1]; 308.15 K): 1175.1 ± 2.7 kg/m3
CCOS(=O)(=O)[O-].CC[N+]1(C)CCCC1 [1-ethyl-1-methylpyrrolidinium ethyl sulfate],78.32 ± 13,1176.31 ± 2.7,64.72 ± 10,1173.63 ± 2.6,53.51 ± 8.6,1170.95 ± 2.6,44.82 ± 7.2,1168.27 ± 2.6,37.95 ± 6.1,1165.59 ± 2.6,32.87 ± 5.3 mPa·s,1162.91 ± 2.6,29.23 ± 4.7 mPa·s,1160.23 ± 2.6,,,,,,,"Normal melting temperature ([1]; Crystal, visual observation): 36.92 ± 0.5 °C"
CCOS(=O)(=O)[O-].CC[N+]1(C)CCOCC1 [4-ethyl-4-methylmorpholinium ethyl sulfate],2426 ± 480,1242.67 ± 3,1677 ± 320,1239.51 ± 3,1129 ± 210,1236.35 ± 3,779.3 ± 140,1233.2 ± 2.9,552.3 ± 98,1230.06 ± 2.9,400.8 ± 69 mPa·s,1226.93 ± 2.9,297.3 ± 50 mPa·s,1223.81 ± 2.9,,,,,,,mass density ([1]; 298.15 K): 1252.26 ± 3 kg/m3; mass density ([1]; 303.15 K): 1249.05 ± 3 kg/m3; mass density ([1]; 308.15 K): 1245.86 ± 3 kg/m3
O [water],0.681 ± 0.11,992.15 ± 0.2,0.63 ± 0.1,,0.593 ± 0.095,987.93 ± 0.2,0.56 ± 0.09,985.69 ± 0.2,0.528 ± 0.085,983.17 ± 0.2,0.519 ± 0.083 mPa·s and 0.5 ± 0.08 mPa·s,980.3 ± 0.2,0.51 ± 0.082 mPa·s and 0.473 ± 0.076 mPa·s,978.1 ± 0.2,,,,,,,viscosity ([1]; 298.15 K): 0.89 ± 0.14 mPa·s; viscosity ([1]; 303.15 K): 0.808 ± 0.13 mPa·s; viscosity ([1]; 308.15 K): 0.74 ± 0.12 mPa·s
O [water] + CCOS(=O)(=O)[O-].CC[N+]1(C)CCCC1,,,,,,,,,,,,,,,0.681 ± 0.11,992.15 ± 0.2,0.63 ± 0.1,0.593 ± 0.095,987.93 ± 0.2,0.56 ± 0.09,mass density ([2]; 328.15 K): 985.69 ± 0.2 kg/m3; viscosity ([2]; 333.15 K): 0.528 ± 0.085 mPa·s; mass density ([2]; 333.15 K): 983.17 ± 0.2 kg/m3; viscosity ([2]; 338.15 K): 0.519 ± 0.083 mPa·s; mass density ([2]; 338.15 K): 980.3 ± 0.2 kg/m3; viscosity ([2]; 343.15 K): 0.51 ± 0.082 mPa·s; mass density ([2]; 343.15 K): 978.1 ± 0.2 kg/m3
O [water] + CCOS(=O)(=O)[O-].CC[N+]1(C)CCCCC1,,,,,,,,,,,,,,,0.681 ± 0.11,992.15 ± 0.2,0.63 ± 0.1,0.593 ± 0.095,987.93 ± 0.2,0.56 ± 0.09,viscosity ([2]; 298.15 K): 0.89 ± 0.14 mPa·s; viscosity ([2]; 303.15 K): 0.808 ± 0.13 mPa·s; viscosity ([2]; 308.15 K): 0.74 ± 0.12 mPa·s; mass density ([2]; 328.15 K): 985.69 ± 0.2 kg/m3; viscosity ([2]; 333.15 K): 0.528 ± 0.085 mPa·s; mass density ([2]; 333.15 K): 983.17 ± 0.2 kg/m3; viscosity ([2]; 338.15 K): 0.5 ± 0.08 mPa·s; mass density ([2]; 338.15 K): 980.3 ± 0.2 kg/m3; viscosity ([2]; 343.15 K): 0.473 ± 0.076 mPa·s; mass density ([2]; 343.15 K): 978.1 ± 0.2 kg/m3
O [water] + CCOS(=O)(=O)[O-].CC[N+]1(C)CCOCC1,,,,,,,,,,,,,,,0.681 ± 0.11,992.15 ± 0.2,0.63 ± 0.1,0.593 ± 0.095,987.93 ± 0.2,0.56 ± 0.09,viscosity ([2]; 298.15 K): 0.89 ± 0.14 mPa·s; viscosity ([2]; 303.15 K): 0.808 ± 0.13 mPa·s; viscosity ([2]; 308.15 K): 0.74 ± 0.12 mPa·s; mass density ([2]; 328.15 K): 985.69 ± 0.2 kg/m3; viscosity ([2]; 333.15 K): 0.528 ± 0.085 mPa·s; mass density ([2]; 333.15 K): 983.17 ± 0.2 kg/m3; viscosity ([2]; 338.15 K): 0.5 ± 0.08 mPa·s; mass density ([2]; 338.15 K): 980.3 ± 0.2 kg/m3; viscosity ([2]; 343.15 K): 0.473 ± 0.076 mPa·s; mass density ([2]; 343.15 K): 978.1 ± 0.2 kg/m3
